Data from patent US20260284208A1, “SYSTEM” (Oxford University Innovation Limited, priority 2023, published 2026).

Tested on: library of 8,380 IKZF3 degrons (ZF-eGFP/mCherry reporter) in Jurkat cells
Test: Pooled library screen (FACS, NGS, limma voom LogFC of positive vs negative read counts)
Type: cell-based, human
Description: A library of 8,380 IKZF3 degrons was cloned into pLVX-Sprout to create the eGFP/mCherry protein degradation reporter plasmid pool. A lentivirus pool was then generated using the Lenti-X lentiviral vector production method.
Jurkat cells were transduced at a multiplicity of infection of <0.3 with the lentivirus vector library in order to maximise the number of cells with a single integration. Transductions were carried out in 6 well TC-treated cell culture dishes (Falcon) with 3×10^6 cells per well. Cells were incubated for 2 days at 37° C. and 5% CO2 before the supernatant was removed and replaced with fresh media. 6 days post-transduction, mCherry+ cells were isolated via FACS using the FACS Aria Fusion (BD) in a buffer containing PBS (Gibco), 2 mM EDTA (Gibco), 25 mM HEPES (Sigma) and 1% BSA (Sigma). 8 days later, cells were treated with DMSO or a thalidomide analog for 18 hours at 37° C. and 5% CO2. mCherry+GFPlow and NOT(mCherry+GFPlow) cells were sorted by FACS using the FACS Aria Fusion (BD). DMSO treated cells were used to set the mCherry+GFPlow gate and dead cells were excluded from sorting by staining cells with 1 μg/mL DAPI (ThermoFisher). gDNA was isolated using the Maxwell RSC 48 (Promega). gDNA from cells that were unsorted and untreated were also isolated to determine the library representation on the day of compound treatment. Throughout the screen >600× coverage of the library was maintained. 3 biological replicates were carried out with a new transduction taking place each time.
A two-step PCR was used where the first PCR (PCR1) amplified the integrated degron sequence from gDNA and the second PCR (PCR2) added Illumina adaptors and barcodes to permit multiplexing. See Supp F for PCR1 and PCR2 primers. Q5 Hot Start High-Fidelity 2× Master Mix (New England Biolabs) was used for both PCRs. Sufficient gDNA was amplified in PCR1 in order to maintain >600× coverage and amplicons were purified using solid phase reversible immobilization (SPRI) beads (Beckman Coulter). Purified PCR1 products were analysed on the Tapestation 4200 (Agilent) to confirm purity prior to proceeding to PCR2. Sufficient PCR1 product was amplified in PCR2 in order to maintain >600× coverage and amplicons were run on a 2% agarose TAE gel. Target bands were excised and purified using the NucleoSpin Gel and PCR Clean-up Kit (Machery Nagel). Amplicons were analysed on the Tapestation 4200 and quantified using Qubit dsDNA HS kit (ThermoFisher). PCR products were pooled and sequenced as paired-reads on the NovaSeq (Illumina) using a SP2 200 cycles kit (Illumina).
Count distributions, percentage of read mapping, library coverage and replicate correlation per sample were assessed for QC purposes.
To carry out the library screen, we used the same plasmid construct as in our earlier flow cytometry assays, but pooling all 8,380 mutants together into one Jurkat population, ensuring a copy number of one plasmid per cell (FIG. 4B). […] These GFP-negative cells were then separated from the remaining GFP-positive population using fluorescence activated cell sorting (FACS). These two populations were then sequenced and the relative abundance of every mutant in both populations compared to provide a log FC value for each mutant sequence. This value indicated how frequently a sequence is observed in the GFP-negative population relative to the GFP-positive population, and therefore how effective a degron it is for that particular IMID compound.

`O=C1CCC(N2C(=O)c3ccc(N4CCOCC4)cc3C2=O)C(=O)N1` (centres unmarked) [B03] showed a B03_logFC (Degron-ID 4175, SEQ ID NO 3945, 46F_47W_49E_50Q_52G_53A_54S_55F_67L) of 2.767, a B03_logFC (Degron-ID 4189, SEQ ID NO 3997, 46F_47W_49E_50V_52G_53A_54L_55F_67L) of 2.69 and a B03_logFC (Degron-ID 4212, SEQ ID NO 4019, 46F_47W_49N_50I_52G_53A_54P_55F_67L) of 2.659. It also gave a B03_logFC (Degron-ID 4216, SEQ ID NO 3948, 46F_47W_49N_50I_52G_53A_54T_55F_67L) of 2.757, a B03_logFC (Degron-ID 4217, SEQ ID NO 3953, 46F_47W_49N_50I_52G_53A_54V_55F_67L) of 2.75 and a B03_logFC (Degron-ID 4265, SEQ ID NO 3969, 46F_47W_49P_50I_52G_53A_54G_55F_67L) of 2.729. It also gave a B03_logFC (Degron-ID 4267, SEQ ID NO 4028, 46F_47W_49P_50I_52G_53A_54I_55F_67L) of 2.643, a B03_logFC (Degron-ID 4270, SEQ ID NO 3946, 46F_47W_49P_50I_52G_53A_54M_55F_67L) of 2.765 and a B03_logFC (Degron-ID 4279, SEQ ID NO 3996, 46F_47W_49P_50I_52G_53A_54Y_55F_67L) of 2.691. It also gave a B03_logFC (Degron-ID 4307, SEQ ID NO 3975, 46F_47W_49P_50V_52G_53A_54I_55F_67L) of 2.72, a B03_logFC (Degron-ID 4366, SEQ ID NO 3950, 46F_47Y_49D_50V_52G_53A_54H_55F_67L) of 2.757 and a B03_logFC (Degron-ID 4368, SEQ ID NO 4018, 46F_47Y_49D_50V_52G_53A_54K_55F_67L) of 2.66. The B03_logFC (Degron-ID 4456, SEQ ID NO 4010, 46F_47Y_49N_50I_52G_53A_54T_55F_67L) was 2.672, the B03_logFC (Degron-ID 4503, SEQ ID NO 4007, 46F_47Y_49P_50I_52G_53A_54E_55F_67L) was 2.675 and the B03_logFC (Degron-ID 4510, SEQ ID NO 3967, 46F_47Y_49P_50I_52G_53A_54M_55F_67L) was 2.732. It also gave a B03_logFC (Degron-ID 4544, SEQ ID NO 4004, 46F_47Y_49P_50V_52G_53A_54F_55F_67L) of 2.679, a B03_logFC (Degron-ID 4559, SEQ ID NO 4033, 46F_47Y_49P_50V_52G_53A_54Y_55F_67L) of 2.636 and a B03_logFC (Degron-ID 6474, SEQ ID NO 3991, 46L_47A_49P_50I_52G_53F_54R_55C_67L) of 2.7. For the same molecule, the B03_logFC (Degron-ID 6480, SEQ ID NO 4002, 46L_47C_49P_50I_52G_53F_54A_55C_67L) was 2.685, the B03_logFC (Degron-ID 6494, SEQ ID NO 4012, 46L_47C_49P_50I_52G_53F_54R_55C_67L) was 2.668 and the B03_logFC (Degron-ID 6496, SEQ ID NO 3983, 46L_47C_49P_50I_52G_53F_54T_55C_67L) was 2.713. It also gave a B03_logFC (Degron-ID 6544, SEQ ID NO 3994, 46L_47F_49P_50I_52G_53F_54F_55C_67L) of 2.694, a B03_logFC (Degron-ID 6545, SEQ ID NO 3958, 46L_47F_49P_50I_52G_53F_54G_55C_67L) of 2.743 and a B03_logFC (Degron-ID 6547, SEQ ID NO 3973, 46L_47F_49P_50I_52G_53F_54I_55C_67L) of 2.724. For the same molecule, the B03_logFC (Degron-ID 6559, SEQ ID NO 3972, 46L_47F_49P_50I_52G_53F_54Y_55C_67L) was 2.725, the B03_logFC (Degron-ID 6579, SEQ ID NO 3987, 46L_47G_49P_50I_52G_53F_54Y_55C_67L) was 2.704 and the B03_logFC (Degron-ID 6581, SEQ ID NO 3985, 46L_47H_49P_50I_52G_53F_54C_55C_67L) was 2.71. It also gave a B03_logFC (Degron-ID 6593, SEQ ID NO 4008, 46L_47H_49P_50I_52G_53F_54Q_55C_67L) of 2.674, a B03_logFC (Degron-ID 6600, SEQ ID NO 3995, 46L_47I_49P_50I_52G_53F_54A_55C_67L) of 2.692 and a B03_logFC (Degron-ID 6715, SEQ ID NO 3949, 46L_47Q_49P_50I_52G_53F_54S_55C_67L) of 2.757. For the same molecule, the B03_logFC (Degron-ID 6759, SEQ ID NO 4005, 46L_47S_49P_50I_52G_53F_54Y_55C_67L) was 2.677, the B03_logFC (Degron-ID 6761, SEQ ID NO 4009, 46L_47T_49P_50I_52G_53F_54C_55C_67L) was 2.672 and the B03_logFC (Degron-ID 6793, SEQ ID NO 3980, 46L_47V_49P_50I_52G_53F_54Q_55C_67L) was 2.717. For the same molecule, the B03_logFC (Degron-ID 6803, SEQ ID NO 4032, 46L_47W_49P_50I_52G_53F_54E_55C_67L) was 2.637, the B03_logFC (Degron-ID 6807, SEQ ID NO 3992, 46L_47W_49P_50I_52G_53F_54I_55C_67L) was 2.695 and the B03_logFC (Degron-ID 7568, SEQ ID NO 3954, 46F_47W_49E_50I_52G_53R_54K_55F_67L) was 2.75. It also gave a B03_logFC (Degron-ID 7574, SEQ ID NO 3993, 46F_47W_49E_50I_52G_53R_54R_55F_67L) of 2.695, a B03_logFC (Degron-ID 7699, SEQ ID NO 3976, 46L_47F_49E_50I_52G_53F_54Y_55C_67L) of 2.72 and a B03_logFC (Degron-ID 7894, SEQ ID NO 3947, 46L_47S_49E_50I_52G_53F_54R_55C_67L) of 2.76. For the same molecule, the B03_logFC (Degron-ID 7920, SEQ ID NO 3990, 46L_47V_49E_50I_52G_53F_54A_55C_67L) was 2.702, the B03_logFC (Degron-ID 7971, SEQ ID NO 3955, 46L_47Y_49E_50I_52G_53F_54N_55C_67L) was 2.749 and the B03_logFC (degron 1074 (SEQ ID NO 3496) 46F_47F_49E_50V_52G_53A_54R_55F_67L) was 3.71. It also gave a B03_logFC (degron 4088 (SEQ ID NO 3502) 46F_47W_49D_50I_52G_53A_54K_55F_67L) of 3.696, a B03_logFC (degron 4091 (SEQ ID NO 3497) 46F_47W_49D_50I_52G_53A_54N_55F_67L) of 3.708 and a B03_logFC (degron 4395 (SEQ ID NO 3500) 46F_47Y_49E_50I_52G_53A_54S_55F_67L) of 3.7. For the same molecule, the B03_logFC (degron 4420 (SEQ ID NO 3499) 46F_47Y_49E_50V_52G_53A_54A_55F_67L) was 3.704, the B03_logFC (degron 4551 (SEQ ID NO 3503) 46F_47Y_49P_50V_52G_53A_54N_55F_67L) was 3.692 and the B03_logFC (degron 6814 (SEQ ID NO 3498) 46L_47W_49P_50I_52G_53F_54R_55C_67L) was 3.704. The B03_logFC (degron 7973 (SEQ ID NO 3495) 46L_47Y_49E_50I_52G_53F_54Q_55C_67L) was 3.711 and the B03_logFC (degron 7975 (SEQ ID NO 3501) 46L_47Y_49E_50I_52G_53F_54S_55C_67L) was 3.698.
